Test results reported in ChEMBL document CHEMBL3352575, “Synthesis, in vitro and in vivo antitumor activity of pyrazole-fused 23-hydroxybetulinic acid derivatives” (Bioorg Med Chem Lett, 2015).

Experiments:
Format in all cases: functional, cell-based
[1] = Antiproliferative activity against human Bel7402 cells after 72 hrs by MTT assay; settings: Bel-7402, 72 h
[2] = Antiproliferative activity against human HL60 cells after 72 hrs by MTT assay; settings: HL-60, 72 h
B16 = assay: Antiproliferative activity against mouse B16 cells after 72 hrs by MTT assay; settings: B16, 72 h
[3] = Antiproliferative activity against human SF763 cells after 72 hrs by MTT assay; settings: SF763, 72 h
HeLa = assay: Antiproliferative activity against human HeLa cells after 72 hrs by MTT assay

| Compound | IC50 [1] | IC50 [2] | IC50 (B16) | IC50 [3] | IC50 (HeLa) |
| --- | --- | --- | --- | --- | --- |
| C=C(C)[C@@H]1CC[C@]2(C(=O)OCc3ccccc3)CC[C@]3(C)[C@H](CC[C@@H]4[C@@]5(C)Cc6c[nH]nc6[C@@](C)(CO)[C@@H]5CC[C@]43C)[C@@H]12 | 13.9 µM | 20.1 µM | 13 µM | 11.7 µM | 16.1 µM |
| C=C(C)[C@@H]1CC[C@]2(C(=O)OCc3ccccc3)CC[C@]3(C)[C@H](CC[C@@H]4[C@@]5(C)Cc6cn(C(C)=O)nc6[C@@](C)(COC(C)=O)[C@@H]5CC[C@]43C)[C@@H]12 | 26.7 µM | 33.6 µM | 28 µM | 28.4 µM | 30.9 µM |
| C=C(C)[C@@H]1CC[C@]2(C(=O)O)CC[C@]3(C)[C@H](CC[C@@H]4[C@@]5(C)Cc6cn(C(C)=O)nc6[C@@](C)(COC(C)=O)[C@@H]5CC[C@]43C)[C@@H]12 | 30.7 µM | 39.1 µM | 37.4 µM | 31.5 µM | 33.8 µM |
| C=C(C)[C@@H]1CC[C@]2(C(=O)O)CC[C@]3(C)[C@H](CC[C@@H]4[C@@]5(C)Cc6c[nH]nc6[C@@](C)(COC(C)=O)[C@@H]5CC[C@]43C)[C@@H]12 | 17.1 µM | 25.1 µM | 15.3 µM | 14.1 µM | 17.8 µM |
| C=C(C)[C@@H]1CC[C@]2(C(=O)O)CC[C@]3(C)[C@H](CC[C@@H]4[C@@]5(C)Cc6c[nH]nc6[C@@](C)(CO)[C@@H]5CC[C@]43C)[C@@H]12 | 21 µM | 29.1 µM | 19.8 µM | 20.8 µM | 21.1 µM |
| C=C(C)[C@@H]1CC[C@]2(C(=O)OCC)CC[C@]3(C)[C@H](CC[C@@H]4[C@@]5(C)Cc6cn(C(C)=O)nc6[C@@](C)(COC(C)=O)[C@@H]5CC[C@]43C)[C@@H]12 | 33.7 µM | 40.2 µM | 30.2 µM | 29.4 µM | 32.6 µM |
| C=C(C)[C@@H]1CC[C@]2(C(=O)OCC(=O)OCC)CC[C@]3(C)[C@H](CC[C@@H]4[C@@]5(C)Cc6cn(C(C)=O)nc6[C@@](C)(COC(C)=O)[C@@H]5CC[C@]43C)[C@@H]12 | 36 µM | 45.6 µM | 35.7 µM | 37.6 µM | 40.4 µM |
| C=CCOC(=O)[C@]12CC[C@@H](C(=C)C)[C@@H]1[C@H]1CC[C@@H]3[C@@]4(C)Cc5cn(C(C)=O)nc5[C@@](C)(COC(C)=O)[C@@H]4CC[C@@]3(C)[C@]1(C)CC2 | 23.1 µM | 32.3 µM | 19.8 µM | 19.5 µM | 27.4 µM |
| C=C(C)[C@@H]1CC[C@]2(C(=O)OCC)CC[C@]3(C)[C@H](CC[C@@H]4[C@@]5(C)Cc6c[nH]nc6[C@@](C)(CO)[C@@H]5CC[C@]43C)[C@@H]12 | 15.2 µM | 21.1 µM | 16.1 µM | 13.3 µM | 16.2 µM |
| C=CCOC(=O)[C@]12CC[C@@H](C(=C)C)[C@@H]1[C@H]1CC[C@@H]3[C@@]4(C)Cc5c[nH]nc5[C@@](C)(CO)[C@@H]4CC[C@@]3(C)[C@]1(C)CC2 | 17.8 µM | 24.3 µM | 18 µM | 18.7 µM | 19.5 µM |
| C=C(C)[C@@H]1CC[C@]2(C(=O)O[C@@H]3O[C@H](CO)[C@@H](O)[C@H](O)[C@H]3O)CC[C@]3(C)[C@H](CC[C@@H]4[C@@]5(C)Cc6c[nH]nc6[C@@](C)(COC(C)=O)[C@@H]5CC[C@]43C)[C@@H]12 | 14.1 µM | 28.5 µM | 18.9 µM | 20.1 µM | 20 µM |
| COc1cccc2c1C(=O)c1c(O)c3c(c(O)c1C2=O)C[C@@](O)(C(=O)CO)C[C@@H]3O[C@H]1C[C@H](N)[C@H](O)[C@H](C)O1 [DOXORUBICIN] | 0.22 µM |  |  |  |  |
